{
  "source": "patent US5110976A",
  "about": "“Insecticidal composition comprising more than one active ingredient” (priority 1985, dated 1992)",
  "key": {"[1]": {"system": "Musca domestica", "details": "cited from earlier work"}, "[2]": {"system": "Phaedon cochleariae", "details": "cited from earlier work"}, "[3]": {"system": "T. confusum", "experiment": "Topical LD50 (Table 3)", "type": "in vivo, 1-2 weeks' old imagos", "details": "topical, abdominal side", "method": "(§1) In Table 3 the LD50 values of the Ig and Ii isomers and those of the Ib isomer-pair are disclosed. The data are topically measured.\n(§2) The active ingredients are dissolved in 2-ethoxyethanol (cellosolve) and 0.3 μl droplets of the solutions are applied onto the dorsal cuticulum of 3-5 days' old female house flies. 10 animals are used and 2 parallels are carried out for each dose. The tests are carried out for 5 dose levels between activity limits of 0% and 100%. After treatment the flies are placed into glass vials. Mortality is determined after 24 hours. Data are transformed to log10 dosage and probit mortality. LD50 and confidence interval values are calculated by linear regression analysis of the log-probit data. The expected values required for the calculation of synergism are obtained by means of harmonic average. The synergistic factor is the quotient of the expected and measured values.\nThe active ingredients are dissolved in 2-ethoxyethanol and 0.3 μl droplets of the solutions are applied onto the abdominal side of 1-2 weeks' old imagos. Treatment is carried out with 2 parallels and 20 animals for each dose by using 5 dose levels in the range between activity limits of 0% and 100%. Evaluation and determination of LD50 values and synergistic factors are carried out as described in Example 21."}, "[4]": {"system": "T. confusum", "experiment": "Activity as function of time, toxic symptoms (Table 16)", "type": "in vivo, flour beetle (T. confusum), imagos", "method": "(§3) The active ingredient is dissolved in a 1:2 mixture of oil and acetone; filter paper discs (Whatman No. 1, diameter 9 cm) are impregnated with the solutions of the corresponding stereoisomers and enantiomer-pairs, respectively. The acetone is allowed to evaporate, whereupon the insects are exposed to filter papers discs placed in Petri-dishes. Three parallels are used on each dose and 15 insects are placed into each Petri-dish. The percental mortality is determined after 24 hours. The corrected percent mortality is calculated by means of the Abbot Formula.\nActivity of cypermethrin stereoisomer-pairs as function of time on flour beetle (T. Confusum).\nFlour beetle (T. confusum) imagos are exposed in Petri-dishes according to the method described in Example 43. For each dose 3 parallels are used and 15 animals are applied for each parallel test. In each point of time the insects lying on their backs are counted and the percental results are expressed in Table 16."}, "[5]": {"system": "Musca domestica", "experiment": "Topical LD50 (Table 3)", "type": "in vivo, house fly (Musca domestica), 3-5 days' old females", "details": "topical, dorsal cuticulum; 24 hours", "method": "as §1, §2"}, "[6]": {"system": "T. confusum", "experiment": "Contact method, synergism between stereoisomers (Table 2)", "type": "in vivo", "details": "Tribolium confusum, 24 h", "method": "The stereoisomers are dissolved in a 1:2 mixture of mineral oil and acetone and filter paper discs (Whatman No. 1., diameter 9 cm) are impregnated with the corresponding dosage of the solution of the active ingredient. The acetone is allowed to evaporate and the insects are examined on filter paper discs placed into Petri-dishes. Three parallels are used for each dose and 15 animals are placed in each Petri-dish. Mortality rate is determined after 24 hours. The corrected mortality % data are calculated by means of the Abbot formula.\nThe test is carried out on T. confusum and the following results are obtained by the contact method for various active ingredient doses.\nThe test is carried out according to the method described in Example 20."}, "[7]": {"system": "Tribolium confusum", "experiment": "Contact test on Tribolium confusum (Table 12)", "type": "in vivo", "details": "Tribolium confusum, 24 h", "method": "as §3\nIt appears from Table 12 that the increased activity shown in Example 41 is due to the synergistic effect of the trans-isomers to Tribolium confusum."}, "[8]": {"system": "Musca domestica", "experiment": "Filter paper disc contact test (Table 11)", "type": "in vivo, house fly (Musca domestica)", "details": "Musca domestica, 24 h", "method": "In Table 1 the activity of various stereoisomers of cypermethrin on the house fly (Musca domestica) is shown.\nas §3"}, "[9]": {"details": "mixture activity lower than the calculated value"}},
  "data": [
    {"smiles": "CC1(C)[C@H](C=C(Cl)Cl)[C@H]1C(=O)OC(C#N)c1cccc(Oc2ccccc2)c1", "note": "(mixture of isomers) [mixture of both tested isomers]", "values": [
      {"measurement": "rate of antagonism", "setting": "[1]; [9]", "result": 1.42},
      {"measurement": "rate of antagonism", "setting": "[2]; [9]", "result": 1.46}
    ]},
    {"smiles": "CC1(C)[C@H](C=C(Cl)Cl)[C@H]1C(=O)O[C@H](C#N)c1cccc(Oc2ccccc2)c1", "note": "[Ig]", "values": [
      {"measurement": "activity related to bioresmetrine (100)", "setting": "[1]; bioresmetrine = 100", "result": 1400},
      {"measurement": "LD50 measured", "setting": "[3]", "result": 73.6, "unit": "ng/insect"},
      {"measurement": "% of insects showing toxic symptoms", "setting": "[4]; 30 minutes", "result": 0, "unit": "%"},
      {"measurement": "% of insects showing toxic symptoms", "setting": "[4]; 30 minutes, 0.33 mg/disc", "result": 0, "unit": "%"},
      {"measurement": "% of insects showing toxic symptoms", "setting": "[4]; 30 minutes, 1.00 mg/disc", "result": 15, "unit": "%"},
      {"measurement": "% of insects showing toxic symptoms", "setting": "[4]; 30 minutes, 3.00 mg/disc", "result": 68, "unit": "%"},
      {"measurement": "% of insects showing toxic symptoms", "setting": "[4]; 60 minutes", "result": 18, "unit": "%"},
      {"measurement": "% of insects showing toxic symptoms", "setting": "[4]; 60 minutes, 0.33 mg/disc", "result": 34, "unit": "%"},
      {"measurement": "% of insects showing toxic symptoms", "setting": "[4]; 60 minutes, 1.00 mg/disc", "result": 98, "unit": "%"},
      {"measurement": "% of insects showing toxic symptoms", "setting": "[4]; 60 minutes, 3.00 mg/disc", "result": 100, "unit": "%"},
      {"measurement": "% of insects showing toxic symptoms", "setting": "[4]; 120 minutes", "result": 30, "unit": "%"},
      {"measurement": "% of insects showing toxic symptoms", "setting": "[4]; 120 minutes, 0.33 mg/disc", "result": 70, "unit": "%"},
      {"measurement": "% of insects showing toxic symptoms", "setting": "[4]; 120 minutes, 1.00 mg/disc", "result": 100, "unit": "%"},
      {"measurement": "% of insects showing toxic symptoms", "setting": "[4]; 120 minutes, 3.00 mg/disc", "result": 100, "unit": "%"},
      {"measurement": "% of insects showing toxic symptoms", "setting": "[4]; 180 minutes", "result": 34, "unit": "%"},
      {"measurement": "% of insects showing toxic symptoms", "setting": "[4]; 180 minutes, 0.33 mg/disc", "result": 84, "unit": "%"},
      {"measurement": "% of insects showing toxic symptoms", "setting": "[4]; 180 minutes, 1.00 mg/disc", "result": 100, "unit": "%"},
      {"measurement": "% of insects showing toxic symptoms", "setting": "[4]; 180 minutes, 3.00 mg/disc", "result": 100, "unit": "%"},
      {"measurement": "LD50 measured", "setting": "[5]", "result": 13.4, "unit": "ng/insect"},
      {"measurement": "mortality at 110 µg/disc", "setting": "[6]; 0.11 mg/disc", "result": 80, "unit": "%"},
      {"measurement": "mortality at 330 µg/disc", "setting": "[6]; 0.33 mg/disc", "result": 94, "unit": "%"},
      {"measurement": "mortality at 1000 µg/disc", "setting": "[6]; 1.00 mg/disc", "result": 100, "unit": "%"},
      {"measurement": "mortality at 3000 µg/disc", "setting": "[6]; 3.00 mg/disc", "result": 100, "unit": "%"},
      {"measurement": "activity related to bioresmetrine (100)", "setting": "[2]; bioresmetrine = 100", "result": 2200},
      {"measurement": "mortality at 110 µg/disc", "setting": "[7]; 0.11 mg/disc", "result": 70, "unit": "%"},
      {"measurement": "mortality at 330 µg/disc", "setting": "[7]; 0.33 mg/disc", "result": 92, "unit": "%"},
      {"measurement": "mortality at 1000 µg/disc", "setting": "[7]; 1.00 mg/disc", "result": 100, "unit": "%"},
      {"measurement": "mortality at 3000 µg/disc", "setting": "[7]; 3.00 mg/disc", "result": 100, "unit": "%"},
      {"measurement": "mortality at 40 µg/disc", "setting": "[8]; 0.04 mg/disc", "result": 48, "unit": "%"},
      {"measurement": "mortality at 110 µg/disc", "setting": "[8]; 0.11 mg/disc", "result": 68, "unit": "%"},
      {"measurement": "mortality at 330 µg/disc", "setting": "[8]; 0.33 mg/disc", "result": 83, "unit": "%"},
      {"measurement": "mortality at 1000 µg/disc", "setting": "[8]; 1.00 mg/disc", "result": 100, "unit": "%"},
      {"measurement": "mortality at 3000 µg/disc", "setting": "[8]; 3.00 mg/disc", "result": 100, "unit": "%"}
    ]}
  ]
}
